Read-outs that look alike come from different tables or passages of the source.
How the values were obtained:
isolated heart [1] = test: Experiment 2-1 Activity on isolated heart; parameters: species or system Japanese white rabbit; settings: Oryctolagus cuniculus, 3 μg/heart; for activation at 3 µg/heart: read-out: Increase of coronary perfusion; for inhibition at 3 µg/heart, 3 µg/heart: read-out: Inhibitory rate of systole; for inhibition at 3 µg/heart: read-out: Reducing rate of heart pulse
Method: Japanese white rabbit (weighing 2.2-2.5 kg) was anesthetized by introvenous injection of nembutal (20 mg/kg) and then sacrificed by bleeding from common carotid artery. […] After stabilizing the heart preparation for 90 minutes, the test compound was administered. There were measured the perfusion volume with a drop-counting meter (ET-600G type, manufactured by Nippon Koden K.K.) and the heart pulse and the contractility via a force-displacement transducer (FD pick up, SB-IT type, manufactured by Nippon Koden K.K.) (for measuring heart pulse, an instant pulse meter (AT-601G type, minufactured by Nippon Koden K.K.) being further used).

isolated heart [2] = test: Experiment 2-2 Activity onto the isolated heart (with duration); parameters: species or system Japanese white rabbit; settings: for Coronary perfusion Duration: time until perfusion volume returned to initial level; for activation at 3 µg/heart / inhibition at 3 µg/heart / activation at 1 µg/heart / inhibition at 1 µg/heart: Oryctolagus cuniculus; for activation at 3 µg/heart / activation at 1 µg/heart: read-out: Coronary perfusion Increase
Method: Japanese white rabbit (weighing 2.2-2.5 kg) was anesthetized by introvenous injection of nembutal (20 mg/kg) and then sacrificed by bleeding from common carotid artery. […] There were measured the perfusion volume with a drop-counting meter (ET-600G type, manufactured by Nippon Koden K.K.) and the heart pulse and the contractility via a force-displacement transducer (FD pick up, SB-IT type, manufactured by Nippon Koden K.K.) (for measuring heart pulse, an instant pulse meter (AT-601G type, minufactured by Nippon Koden K.K.) being further used).
The test compounds were dissolved in ethanol, and the solution was diluted in 100-fold with purified water, and the diluted solution was administered in an amount of 0.1 ml/heart (i.e. 3 μg/heart).
The activity was measured in the same manner as described in Experiment 2-1 except that in some test compounds, the dose was in 1 μg/heart. Besides, the duration of the activity was evaluated by counting the time until the coronary perfusion volume became to the initial level before the administration of the test compound.

isolated aorta = test: Experiment 3 Relaxing activity on the isolated aorta (30 mM KCl contracted); parameters: species or system Japanese white rabbit; settings: for EC50: Oryctolagus cuniculus, 30 mM KCl contraction, maximum relaxation by papaverine = 100%, read-out: EC50 (concentration for 50% relaxation); for relaxing / vasodilating activity on isolated aorta (in words): Table 8, comparison with nifedipine and nicardipine hydrochloride, etc. where stated
Method: Japanese white rabbit (weighing 2.3-2.7 kg) was sacrificed by bleeding from common carotid artery. Immediately, the aorta was isolated and cut into a sprial strip. The strip preparation was vertically suspended under a resting tension of 2.0 g in a tissue bath containing 20 ml of modified Ringer solution while bubbling with a mixture of 95% O2 +5% CO2 by connecting one end of the strip to a lever of the above-mentioned FD pick up. The aortic strip was contracted with 30 mM KCl. When the contraction became constant, the test compound was accumulatively administered, and the relaxing effect was measured. After the final treatment, 10^-4T M papaverine was administered and the maximum relaxation obtained thereby was taken as 100%. In comparison with the maximum relaxation obtained by papaverine, the rate of relaxation by the test compounds was evaluated, and the concentration of the test compounds for obtaining 50% relaxation (EC50) was calculated.
The test compound was dissolved in ethanol, and the solution was diluted in 100 to 1×10^4 folds with a nutrient solution, and the diluted solution was administered.

[3] = test system: Spontaneously hypertensive male rats; test: Experiment 1-1 Hypotensive activity (oral, conscious spontaneously hypertensive rats); assay type: in vivo, rat; settings: 10 mg/kg oral
Method: Spontaneously hypertensive male rats (13-15 week age, one group: 3 rats) were used. […] The rats were fixed in a Howlman cage without fasting, and the femoral arterial pressure was measured by a direct method without anesthesia with a cannula which was previously inserted into the femoral artery of the animal, via a pressure transducer (MPU-0.5, manufactured by Nippon Koden K.K.). The test compounds were orally administered in the form of a suspension in 0.5% methyl cellulose solution in a dose of 10 mg/kg (in some compounds, 3 mg/kg). In the control group, only 0.5% methyl cellulose solution was administered likewise. The blood pressure was measured for 5 hours after the administration of test compounds.

[4] = 3 μg/heart, read-out: Inhibitory rate of systole
[5] = 3 μg/heart, read-out: Reducing rate of heart pulse
[6] = 1 μg/heart, read-out: Inhibitory rate of systole
[7] = 1 μg/heart, read-out: Reducing rate of heart pulse

Compound	Coronary perfusion Duration (isolated heart [2]; 3 μg/heart) [min]	activation at 3 µg/heart (isolated heart [2]; 3 μg/heart) [%]	inhibition at 3 µg/heart (isolated heart [2]; [4]) [%]	inhibition at 3 µg/heart (isolated heart [2]; [5]) [%]	EC50 (isolated aorta) [nM]	further results
CCNC(=O)C1=C(C)NC(C)=C(C(=O)OC)C1c1ccccc1[N+](=O)[O-] (stereo not shown) [D, reference compound]						activation at 3 µg/heart (isolated heart [1]): 20%; inhibition at 3 µg/heart, 3 µg/heart (isolated heart [1]): 15%; inhibition at 3 µg/heart (isolated heart [1]): 5%
CCCOC(=O)C1=C(C)NC(C)=C(C(=O)NC2CC2)C1c1ccccc1[N+](=O)[O-] (stereo not shown) [Example 89]	< 10	30	35	30		
CCCCOC(=O)C1=C(C)NC(C)=C(C(=O)NC2CC2)C1c1ccccc1[N+](=O)[O-] (stereo not shown) [Example 91]	< 10	20	35	10		
CCOC(=O)C1=C(C)NC(C)=C(C(N)=O)C1c1ccccc1[N+](=O)[O-] (stereo not shown) [Example 9]					670	
CCCCCCCOC(=O)C1=C(C)NC(C)=C(C(=O)NCCC)C1c1ccccc1[N+](=O)[O-] (stereo not shown) [Example 42]					380	
CCCCCOC(=O)C1=C(C)NC(C)=C(C(=O)NCCC)C1c1ccccc1[N+](=O)[O-] (stereo not shown) [Example 39]					40	relaxing / vasodilating activity on isolated aorta (in words) (isolated aorta): the same or more potent activity
CCCNC(=O)C1=C(C)NC(C)=C(C(=O)OCCC(C)C)C1c1ccccc1[N+](=O)[O-] (stereo not shown) [Example 40]						activation at 3 µg/heart (isolated heart [1]): 25%; inhibition at 3 µg/heart, 3 µg/heart (isolated heart [1]): 14%; inhibition at 3 µg/heart (isolated heart [1]): 1%
CCCOC(=O)C1=C(C)NC(C)=C(C(=O)NC(C)C)C1c1cccc([N+](=O)[O-])c1 (stereo not shown) [Example 62]					150	activation at 3 µg/heart (isolated heart [1]): 20%; inhibition at 3 µg/heart, 3 µg/heart (isolated heart [1]): 2%; inhibition at 3 µg/heart (isolated heart [1]): 6%
CCCCCOC(=O)C1=C(C)NC(C)=C(C(N)=O)C1c1ccccc1[N+](=O)[O-] (stereo not shown) [Example 16]					610	
CC1=C(C(=O)NC2CC2)C(c2ccccc2[N+](=O)[O-])C(C(=O)OCC(C)C)=C(C)N1 (stereo not shown) [Example 92]	< 10	10	10	5		
CCCCCCOC(=O)C1=C(C)NC(C)=C(C(=O)NC2CC2)C1c1ccccc1[N+](=O)[O-] (stereo not shown) [Example 95]	10 to 15	20	15	10		
CC1=C(C(=O)NC2CC2)C(c2ccccc2[N+](=O)[O-])C(C(=O)OCCC(C)C)=C(C)N1 (stereo not shown) [Example 94]	< 10	15	10	0		
CCNC(=O)C1=C(C)NC(C)=C(C(=O)OCCC(C)C)C1c1ccccc1[N+](=O)[O-] (stereo not shown) [Example 33]					31	relaxing / vasodilating activity on isolated aorta (in words) (isolated aorta): the same or more potent activity
CCCCCOC(=O)C1=C(C)NC(C)=C(C(=O)NC2CC2)C1c1ccccc1[N+](=O)[O-] (stereo not shown) [Example 93]	20	20	20	15		
CCCCCCCCOC(=O)C1=C(C)NC(C)=C(C(=O)NC2CCCC2)C1c1ccccc1[N+](=O)[O-] (stereo not shown) [Example 86, n-octyl 2,6-dimethyl-3-cyclopentylaminocarbonyl-4-(o-nitrophenyl)-1,4-dihydropyridine-5-carboxylate]						Coronary perfusion Duration (isolated heart [2]; 1 μg/heart): 60 min; activation at 1 µg/heart (isolated heart [2]; 1 μg/heart): 50%; inhibition at 1 µg/heart (isolated heart [2]; [6]): 15%; inhibition at 1 µg/heart (isolated heart [2]; [7]): 20%
CCCCCCCOC(=O)C1=C(C)NC(C)=C(C(=O)NC2CC2)C1c1ccccc1[N+](=O)[O-] (stereo not shown) [Example 81, n-heptyl 2,6-dimethyl-3-cyclopropylaminocarbonyl-4-(o-nitrophenyl)-1,4-dihydropyridine-5-carboxylate]	10 to 15	15	15	0		
CCCCCCCCCOC(=O)C1=C(C)NC(C)=C(C(=O)NC2CCCC2)C1c1ccccc1[N+](=O)[O-] (stereo not shown) [Example 87, n-nonyl 2,6-dimethyl-3-cyclopentylaminocarbonyl-4-(o-nitrophenyl)-1,4-dihydropyridine-5-carboxylate]						Coronary perfusion Duration (isolated heart [2]; 1 μg/heart): 60 min; activation at 1 µg/heart (isolated heart [2]; 1 μg/heart): 40%; inhibition at 1 µg/heart (isolated heart [2]; [6]): 15%; inhibition at 1 µg/heart (isolated heart [2]; [7]): 5%
CC1=C(C(=O)NC2CC2)C(c2ccccc2[N+](=O)[O-])C(C(=O)OC(C)C)=C(C)N1 (stereo not shown) [Example 90]	< 10	15	10	5		
CCC(CC)OC(=O)C1=C(C)NC(C)=C(C(=O)NC(C)C)C1c1ccccc1[N+](=O)[O-] (stereo not shown) [Example 50]					700	
COC(=O)C1=C(C)NC(C)=C(C(=O)NC2CCCC2)C1c1ccccc1[N+](=O)[O-] (stereo not shown) [Example 84, methyl 2,6-dimethyl-3-cyclopentylaminocarbonyl-4-(o-nitrophenyl)-1,4-dihydropyridine-5-carboxylate]						Coronary perfusion Duration (isolated heart [2]; 1 μg/heart): 20 to 30 min; activation at 1 µg/heart (isolated heart [2]; 1 μg/heart): 30%; inhibition at 1 µg/heart (isolated heart [2]; [6]): 15%; inhibition at 1 µg/heart (isolated heart [2]; [7]): 20%
COC(=O)C1=C(C)NC(C)=C(C(=O)NC2CC2)C1c1ccccc1[N+](=O)[O-] (stereo not shown) [Example 80, methyl 2,6-dimethyl-3-cyclopropylaminocarbonyl-4-(o-nitrophenyl)-1,4-dihydropyridine-5-carboxylate]	< 10	25	15	5		
CC1=C(C(N)=O)C(c2ccccc2[N+](=O)[O-])C(C(=O)OC(C)C)=C(C)N1 (stereo not shown) [Example 11]					320	
CCOC(=O)C1=C(C)NC(C)=C(C(=O)NC2CC2)C1c1ccccc1[N+](=O)[O-] (stereo not shown) [Example 88]	< 10	35	30	30		
CC1=C(C(=O)NC(C)C)C(c2cccc([N+](=O)[O-])c2)C(C(=O)OC(C)C)=C(C)N1 (stereo not shown) [Example 63]						Recovering time [3]: 1.5 h; Time for recovering 1/2 of max. hypotension [3]: 1.0 h; Time until reaching to max. hypotension [3]: 15 min; Maximum hypotension ([3]; mean blood pressure): 7 mmHg
CCCCCOC(=O)C1=C(C)NC(C)=C(C(=O)NC(C)C)C1c1cccc([N+](=O)[O-])c1 (stereo not shown) [Example 66]					70	activation at 3 µg/heart (isolated heart [1]): 16%; inhibition at 3 µg/heart, 3 µg/heart (isolated heart [1]): 15%; inhibition at 3 µg/heart (isolated heart [1]): 13%; relaxing / vasodilating activity on isolated aorta (in words) (isolated aorta): the same or more potent activity
CC1=C(C(N)=O)C(c2ccccc2[N+](=O)[O-])C(C(=O)OC(C)C(C)C)=C(C)N1 (stereo not shown) [Example 18]					710	
CC1=C(C(=O)NC2CC2)C(c2ccccc2[N+](=O)[O-])C(C(=O)OCCCC(C)C)=C(C)N1 (stereo not shown) [Example 96]	< 10	20	10	0		
CCCCCCOC(=O)C1=C(C)NC(C)=C(C(=O)NCCC)C1c1ccccc1[N+](=O)[O-] (stereo not shown) [Example 41]					130	
CCCCNC(=O)C1=C(C)NC(C)=C(C(=O)OCCCC)C1c1cccc([N+](=O)[O-])c1 (stereo not shown) [Example 69]					570	
CCCOC(=O)C1=C(C)NC(C)=C(C(N)=O)C1c1ccccc1[N+](=O)[O-] (stereo not shown) [Example 10]					400	

Reference: US4874773A, “3-Aminocarbonyl-1,4-dihydropyridine-5-carboxylic acid compounds, and pharmaceutical composition containing the same” (priority 1985, dated 1989)
